The values that follow come from patent US20120264735A1 (priority 2009, published 2012).

Each structure is given as a SMILES string.

T1 sequence (P08581 25-1390): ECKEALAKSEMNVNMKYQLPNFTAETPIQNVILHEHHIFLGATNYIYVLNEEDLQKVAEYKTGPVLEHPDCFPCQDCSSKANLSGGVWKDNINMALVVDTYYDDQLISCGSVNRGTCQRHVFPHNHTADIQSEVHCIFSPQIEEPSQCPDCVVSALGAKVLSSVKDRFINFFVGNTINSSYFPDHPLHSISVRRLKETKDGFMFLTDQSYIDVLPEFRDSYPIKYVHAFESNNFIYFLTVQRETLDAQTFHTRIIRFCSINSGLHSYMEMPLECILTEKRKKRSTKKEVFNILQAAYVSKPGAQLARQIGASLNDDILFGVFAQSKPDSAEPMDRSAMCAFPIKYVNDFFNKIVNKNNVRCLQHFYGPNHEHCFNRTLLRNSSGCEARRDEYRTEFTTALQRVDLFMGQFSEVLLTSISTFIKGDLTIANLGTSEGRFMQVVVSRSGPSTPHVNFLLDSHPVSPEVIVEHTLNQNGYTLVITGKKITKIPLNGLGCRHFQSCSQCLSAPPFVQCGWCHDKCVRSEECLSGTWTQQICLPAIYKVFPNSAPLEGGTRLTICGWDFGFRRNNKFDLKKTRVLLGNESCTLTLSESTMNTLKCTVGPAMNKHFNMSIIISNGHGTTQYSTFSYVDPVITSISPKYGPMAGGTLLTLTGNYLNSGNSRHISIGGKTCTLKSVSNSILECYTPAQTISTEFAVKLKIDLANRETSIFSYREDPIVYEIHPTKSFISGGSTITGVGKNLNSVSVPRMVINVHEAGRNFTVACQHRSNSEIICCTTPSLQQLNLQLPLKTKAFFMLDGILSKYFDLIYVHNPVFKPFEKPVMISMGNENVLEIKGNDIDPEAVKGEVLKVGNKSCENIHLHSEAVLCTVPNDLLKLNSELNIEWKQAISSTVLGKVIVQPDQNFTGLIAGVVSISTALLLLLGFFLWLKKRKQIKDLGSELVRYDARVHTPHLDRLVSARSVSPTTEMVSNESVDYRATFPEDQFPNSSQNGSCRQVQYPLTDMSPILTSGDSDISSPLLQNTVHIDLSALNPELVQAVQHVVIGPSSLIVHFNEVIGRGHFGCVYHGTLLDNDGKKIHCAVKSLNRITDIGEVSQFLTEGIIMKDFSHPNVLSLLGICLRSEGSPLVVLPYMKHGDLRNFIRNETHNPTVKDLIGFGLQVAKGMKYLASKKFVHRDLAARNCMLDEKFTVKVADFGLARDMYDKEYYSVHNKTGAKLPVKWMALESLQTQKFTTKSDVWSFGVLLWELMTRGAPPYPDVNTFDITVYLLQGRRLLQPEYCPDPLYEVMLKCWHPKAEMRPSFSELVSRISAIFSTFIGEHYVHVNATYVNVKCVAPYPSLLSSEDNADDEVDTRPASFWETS

The assay concerns the target T1, c-Met kinase (recombinant c-Met) (Homo sapiens, UniProt P08581).
T1 construct: 0.27 nM recombinant c-Met
In words: In vitro kinase assay I (homogeneous time-resolved fluorescence tyrosine kinase assay). Type of assay: biochemical. The essentials:
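Biotinylated peptide (0.5 μM) phosphorylated by 0.2 nM recombinant c-Met with 50 μM MgATP, 60 min at room temperature, pH 7.4, 5% DMSO. EDTA stop; HTRF read with Eu-anti-phosphotyrosine antibody and streptavidin-APC. IC50 from 4-parameter logistic fit.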
One may read the IC50 as the concentration that inhibits the measured activity by half. For `Cn1cc(-n2ccc(=O)c(Cc3cccc(NC(=O)OCCN4CCS(=O)(=O)CC4)c3)n2)cn1` [Example 567, 2-(1,1-dioxidothio-morpholin-4-yl)ethyl (3-{[1-(1-methyl-1H-pyrazol-4-yl)-4-oxo-1,4-dihydropyridazin-3-yl]methyl}phenyl)carbamate], the IC50 was below 100 nM.
Turning to `CCOc1cnc2ccc(Cc3nn(-c4cc(F)c(F)c(F)c4)ccc3=O)cc2c1` [Example 65, 3-[(3-ethoxyquinolin-6-yl)methyl]-1-(3,4,5-trifluorophenyl)pyridazin-4(1H)-one], the half-inhibitory concentration (IC50) was in the range of 100 to 1000 nM.
For the molecule `CCOc1cnc(-c2cccc(C(C)c3nn(-c4cnn(C)c4)ccc3=O)c2)nc1` (single isomer, unassigned) [Example 202, 3-{(1R or S)-1-[3-(5-ethoxypyrimidin-2-yl)phenyl]ethyl}-1-(1-methyl-1H-pyrazol-4-yl)pyridazin-4(1H)-one], the IC50 is below 100 nM.
In the case of `CCOC(=O)Nc1cccc(Cc2nn(-c3cncc(F)c3)ccc2=O)c1` [Example 34, ethyl (3-{[1-(5-fluoropyridin-3-yl)-4-oxo-1,4-dihydropyridazin-3-yl]methyl}phenyl)carbamate], the IC50 was below 100 nM.
In the case of `COCCN(C)c1cnc(-c2cccc(Cc3nn(-c4cnn(C)c4)ccc3=O)c2)nc1` [compound 457, 3-(3-{5-[(2-methoxyethyl) (methyl)amino]pyrimidin-2-yl}benzyl)-1-(1-methyl-1H-pyrazol-4-yl)pyridazin-4(1H)-one], the IC50 is below 100 nM.
For `CCCc1nc(-c2cccc(Cc3nn(-c4cnn(C)c4)ccc3=O)c2)n[nH]1` [Example 185, 1-(1-Methyl-1H-pyrazol-4-yl)-3-[3-(5-propyl-1H-1,2,4-triazol-3-yl)benzyl]pyridazin-4(1H)-one] the value was 100 to 1000 nM; for `CC(C)Cc1cnc(-c2cccc(Cc3nn(-c4cnn(C)c4)ccc3=O)c2)nc1` [Example 394, 3-{3-[5-(2-methylpropyl)pyrimidin-2-yl)benzyl}-1-(1-methyl-1H-pyrazol-4-yl)pyridazin-4(1H)-one], below 100 nM.
Take `Cn1cc(-n2ccc(=O)c(Cc3cccc(-c4ncc(-c5ccc(F)cn5)cn4)c3)n2)cn1` [Example 418, 3-{3-[5-(5-fluoropyridin-2-yl)pyrimidin-2-yl]benzyl}-1-(1-methyl-1H-pyrazol-4-yl)pyridazin-4(1H)-one]: the IC50 is below 100 nM.
With `CNC(=O)CCn1cc(-n2ccc(=O)c(Cc3cccc(NC(=O)OCC(C)C)c3)n2)cn1` [Example 702, 2-methylpropyl {3-[(1-{1-[3-(methylamino)-3-oxopropyl]-1H-pyrazol-4-yl}-4-oxo-1,4-dihydropyridazin-3-yl)methyl]phenyl} carbamate], the IC50 was below 100 nM.
In the case of `CCOc1cnc(-c2cccc(Cc3nn(-c4cnn(C)c4)ccc3=O)c2)nc1` [Example 3, 3-[3-(5-Ethoxypyrimidin-2-yl)benzyl]-1-(1-methyl-1H-pyrazol-4-yl)pyridazin-4(1H)-one], the IC50 is below 100 nM.
As to `CCOC(=O)Nc1cccc(Cc2nn(-c3ccc(F)c(F)c3)ccc2=O)c1` [Example 504, ethyl (3-{[1-(3,4-difluorophenyl)-4-oxo-1,4-dihydropyridazin-3-yl]methyl}phenyl)carbamate], the IC50 is below 100 nM.
For `Cn1cc(-n2ccc(=O)c(Cc3cccc(-c4ncc(-c5ccn(C)n5)cn4)c3)n2)cn1` [Example 421, 1-(1-methyl-1H-pyrazol-4-yl)-3-{3-[5-(1-melhyl-1H-pyrazol-3-yl)pyrimidin-2-yl]benzyl}pyridazin-4(1H)-one], the IC50 was below 100 nM.
To `CCn1cc(-n2ccc(=O)c(C(C)c3cccc(-c4ncc(O)cn4)c3)n2)cn1` (single isomer, unassigned) [Example 258, 1-(1-ethyl-1H-pyrazol-4-yl)-3-{(1R or S)-1-[3-(5-hydroxypyrimidin-2-yl)phenyl]ethyl}pyridazin-4(1H)-one] belongs below 100 nM.
